# Measured values: PMC9266460, “KSK-74: Dual Histamine H3 and Sigma-2 Receptor Ligand with Anti-Obesity Potential” (International Journal of Molecular Sciences, 2022)
# Assays:
# H3 histamine receptor = H3 histamine receptor (Homo sapiens, UniProt Q9Y5N1); test: Intrinsic activity at H3R, Aequoscreen assay; type: cell-based
# Protocol: Intrinsic activity studies were performed using two methods, Aequoscreen and LANCE Ultra cAMP assays, according to the manufacturer of the ready-to-use cells with stable expressions of the H3 histamine receptor (Perkin Elmer).
# The Aequoscreen technology uses recombinant cell lines with stable co-expression of apoaequorin and a GPCR as a system to detect activation of the receptor, following the addition of an agonist, via the measurement of light emission. For the measurement, cells (frozen, ready to use) were thawed and resuspended in 10 mL of assay buffer containing 5 μM of coelenterazine h. The cell suspension was then placed in a 10 mL Falcon tube, fixed on a rotating wheel, and incubated overnight at RT° in the dark. Cells were diluted with assay buffer at 5000 cells/20 µL. Agonistic ligands 2 × (50 μL/well), diluted in assay buffer, were prepared in 1/2 area white polystyrene plates, and 50 μL of cell suspension was dispersed on the ligands using the injector. The light emission was recorded for 20 s. Cells were incubated with antagonist for 15 min at RT°. Then, 50 µL of agonist (final concentration equal to 3 × EC80) was injected into the mixture of cells and antagonist and light emission was recorded for 20 s.
# sigma-2 receptor = target: sigma-2 receptor; set-up: method as in PMID 34908391; details: Figure 1; read-out: σ2R Ki; cited from earlier work
# [1] = system: peritoneal adipose tissue; test: Leptin, resistin, IL-6 and MCP-1 levels in adipose tissue (ELISA); type: in vivo, female Wistar rats; details: for leptin levels in adipose tissue: vs palatable diet + vehicle unless worded otherwise
# Protocol: The frozen peritoneal adipose tissue was weighed, and homogenates were prepared by homogenizing 1 g of tissue in 4 mL of 0.1 M phosphate buffer, pH 7.4, using the IKA-ULTRA-TURRAX T8 homogenizer. The adipose tissue homogenates were then used for biochemical assays.
# To determine the levels of leptin, resistin, IL-6, and MCP-1 in adipose tissue, the standard ELISA Kit (Cat. No E0561Ra, Cat. No E0211Ra, Cat. No E0135Ra, Cat. No E0193Ra, Bioassay Technology Laboratory, Shanghai, China) was used. To determine the levels of protein, a standard spectrophotometric test (Cat. No 1-008-B210, Biomaxima S.A. Lublin, Poland) was used.
# sigma-1 receptor = target: sigma-1 receptor; set-up: method as in PMID 34908391; details: Figure 1; read-out: σ1R Ki; cited from earlier work
# H3R = target: T1, H3R (Homo sapiens, UniProt Q9Y5N1); test: Affinity at the H3R (literature values); type: binding; details: H3R Ki relative to sigma-2 Ki
# T1 construct: the Aequoscreen line co-expresses apoaequorin
# [2] = KSK 10 mg/kg i.p., phentermine 7 mg/kg
# Sequence of H3 histamine receptor (Q9Y5N1 whole entry): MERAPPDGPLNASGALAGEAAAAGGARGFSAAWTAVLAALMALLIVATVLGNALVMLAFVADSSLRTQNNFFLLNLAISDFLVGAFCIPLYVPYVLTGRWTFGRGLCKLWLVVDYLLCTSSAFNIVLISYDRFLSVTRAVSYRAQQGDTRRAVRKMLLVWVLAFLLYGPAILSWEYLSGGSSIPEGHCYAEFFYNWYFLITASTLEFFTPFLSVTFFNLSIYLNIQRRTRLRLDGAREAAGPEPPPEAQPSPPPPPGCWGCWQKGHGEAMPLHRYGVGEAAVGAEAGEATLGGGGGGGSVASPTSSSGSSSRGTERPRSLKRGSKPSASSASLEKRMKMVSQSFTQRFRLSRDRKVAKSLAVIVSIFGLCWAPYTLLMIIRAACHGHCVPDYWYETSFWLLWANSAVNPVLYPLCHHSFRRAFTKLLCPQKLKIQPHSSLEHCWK
# T1 sequence (Q9Y5N1 whole entry): as above
IC50 (H3 histamine receptor),affinity ratio H3/sigma-2 receptors (H3R),Compound,Ki (sigma-2 receptor),"leptin levels in adipose tissue [1, 2]",Ki (sigma-1 receptor),IL-6 levels in adipose tissue vs palatable diet + vehicle ([1]; 10 mg/kg),MCP-1 level in adipose tissue vs palatable diet + vehicle ([1]; 10 mg/kg b.w.),"resistin levels in adipose tissue vs palatable diet + vehicle [1, 2]"
1.49 ± 0.2 nM,,CCC(=O)c1ccc(OCCCCCCN2CCN(c3ccncc3)CC2)cc1 [KSK-60],110 nM,maintained leptin levels at the same level as rats in the control group fed standard feed,248 nM,,,
31.9 ± 0.5 nM,0.59,CCC(=O)c1ccc(OCCCCCCCCN2CCN(c3ccncc3)CC2)cc1 [KSK-74],65.9 nM,reduced levels,274 nM,reduced,decreased the level of MCP-1,reduced levels
